From patent US20190125896A1, “ANTI-INFECTIVE COMPOSITIONS COMPRISING PHYTOGLYCOGEN NANOPARTICLES” (MIREXUS BIOTECHNOLOGIES INC., priority 2016, published 2019)
Converted amounts (≈) assume the structure as drawn.

What was measured:
[1] = system: P. aeruginosa PAO1; test: Sensitization to antibiotics: MIC in medium supplemented with phytoglycogen; type: cell-based, Pseudomonas aeruginosa; conditions: P. aeruginosa
Method: MIC assays as defined in Example 15 were performed in sterile and untreated 96 well microtitre plates according to the broth micro-dilution technique described in either the Clinical and Laboratory Standards Institute document M07-A9: Methods for Dilution Antimicrobial Susceptibility Tests for Bacteria that Grow Aerobically; Approved Standard and document M27-A2 Reference Method for Broth Dilution Antifungal Susceptibility Testing of Yeasts; Approved Standard—Second Edition, with the exception that, where indicated, medium was additionally supplemented with native or cationized phytoglycogen. Assessments done using C. utilis ATCC9950, B. subtilis 168 and E. coli AB264 employed native or cationized phytoglycogen at concentrations ⅛, ¼, ½ their respective MIC values for cationized phytoglycogen. Assessments of the opportunistic pathogen P. aeruginosa PAO1 were made at final in-assay concentrations of 0.5, 1 or 10 mg native or cationized phytoglycogen.ml^−1. Experiments were performed as in-assay duplicates, and were repeated a minimum of three times (n=6).
MIC assays were performed in duplicate within each experiment and were repeated a minimum three times to confirm the data (n=6). MIC values with a four-fold or greater change relative to the non-supplemented medium MIC represent a statistically-significant change in MIC value. Only those antibiotic-cationized phytoglycogen combinations which caused a four-fold change relative to the non-supplemented medium MIC were deemed as indicative of resulting in potentiation (MIC value was less), or tolerance (MIC value increased).

[2] = system: P. aeruginosa PAO1 biofilm; test: Biofilm eradication: 20 h biofilms treated with antibiotic and cationized phytoglycogen; type: cell-based, Pseudomonas aeruginosa; conditions: 24 h, medium alone
Method: Biofilm growth and treatments were performed in sterile 96 well polystyrene plates. Sterile solutions of gamma-irradiated cationized phytoglycogen was prepared by reconstitution and dilution as required in sterile Mueller-Hinton broth. P. aeruginosa PAO1 stocks were revived by sub-culturing P. aeruginosa PAO1 (37° C., 150 rpm, 16-18 h) in Mueller-Hinton broth (Oxoid; Fisher Scientific, Canada). The inoculum was prepared immediately prior to use by diluting in sterile Mueller-Hinton broth to a final in-assay cell density of 5×10^5 CFU.ml^−1. 100 μl of this solution was transferred to wells and incubated (37° C., 150 rpm). Sterile broth was the negative growth control. At 20 h, plates were transferred to a biological safety cabinet, well contents were gently aspirated and the wells rinsed with sterile 0.9% (wt/vol) NaCl. […] Positive growth controls contained inoculated medium, non-supplemented or with 1 or 10 mg cationized phytoglycogen.ml^−1. Plates were incubated at 37° C. for a further 24 h, after which biofilms were quantitated as previously described. Experiments were done in quadruplicate replicate and repeated three times (n=12).

[3] = system: P. aeruginosa PAO1 biofilm; test: Biofilm formation at sub-MIC tobramycin; type: cell-based, Pseudomonas aeruginosa; conditions: non-supplemented medium
Method: The potential for cationized phytoglycogen to limit enhanced biofilm formation at sub-MIC concentrations of the aminoglycoside tobramycin was assessed in sterile 96 well polystyrene plates. P. aeruginosa PAO1 stocks were revived by sub-culturing P. aeruginosa PAO1 in Mueller-Hinton broth (Oxoid; Fisher Scientific, Canada) and grown for 20-22 h (37° C., 150 rpm). Sterile solutions of gamma-irradiated cationized phytoglycogen was prepared by reconstitution and dilution as required in sterile Mueller-Hinton broth. […] The inoculum was prepared immediately prior to use by diluting in sterile Mueller-Hinton broth, with a final in-assay cell density of 5×10^5 CFU.ml^−1. Plates were incubated statically at 37° C. At 20 h, biofilms were stained and quantitated according to the previously described protocol (Example 23). Experiments were done in quadruplicate replicate and repeated three times (n=12).

[4] = system: Pseudomonas aeruginosa PAO1; test: MIC broth micro-dilution; type: cell-based; conditions: P. aeruginosa PAO1, Mueller-Hinton broth, read-out: MIC value established empirically
Method: Minimum inhibitory concentration (MIC) assays were done to evaluate antibacterial properties of cationized phytoglycogen. The MIC is defined as “the lowest concentration of an anti-infective agent that prevents visible growth of a micro-organism in an agar or broth dilution susceptibility test”.
MIC assessments against bacteria were performed following broth micro-dilution in accordance with the Clinical and Laboratory Standards Institute document M07-A9: Methods for Dilution Antimicrobial Susceptibility Tests for Bacteria that Grow Aerobically; Approved Standard. A Gram-positive organism, Bacillus subtilis 168, and two Gram-negative organisms, Escherichia coli AB264 (K-12) and Pseudomonas aeruginosa PAO1 were assessed. Long-term stock cultures of organisms were maintained at −80° C. in glycerol (15% vol/vol). Stocks were revived by sub-culturing onto trypticase soy agar plates, grown for 18 hrs at 37° C. and then stored at 4° C. for up to one week. Overnight cultures were grown by inoculating Mueller-Hinton broth with 3-4 colonies from stock plates and incubating for 20-24 hrs at 37° C. and 150 rpm. […] Plates were incubated at 37° C. for 20 h, at which points wells were scored for growth. […] Cationized phytoglycogen, prepared according to the alternative procedure detailed in Example 3, was also assessed in double-dilution increments from 19 to 10 000 μg.ml^−1. […]

With `NC[C@H]1O[C@H](O[C@H]2[C@H](O)[C@@H](O[C@H]3O[C@H](CO)[C@@H](O)[C@H](N)[C@H]3O)[C@H](N)C[C@@H]2N)[C@H](N)C[C@@H]1O` [tobramycin] the “↓ Fold-change in MIC (cationized phytoglycogen) MIC.5 mg/ml” value ([1]; 0.5 mg cationized phytoglycogen · ml^−1 Mueller-Hinton Broth) was 2 fold, the “↓ Fold-change in MIC (cationized phytoglycogen) MIC1 mg/ml” value ([1]; 1 mg cationized phytoglycogen · ml^−1 Mueller-Hinton Broth) was 2 fold and the “↓ Fold-change in MIC (cationized phytoglycogen) MIC10 mg/ml” value ([1]; 10 mg cationized phytoglycogen · ml^−1 Mueller-Hinton Broth) was 1 fold. The MIC ([1]; Pseudomonas aeruginosa, PAO1, non-supplemented Mueller-Hinton Broth, read-out: MIC) was 0.25 µg/mL, the “change in biofilm of 20 h biofilms” value ([2]; 0.125 to 2 times the MIC) was “net increase in biofilm proliferation” and the “reduction of biofilm relative to the initial biofilm” value ([2]; four-fold the MIC) was 40%. The “factor of biofilm accumulation relative to the medium only control” value ([3]; tobramycin at % -MIC) was 1.5, the “factor of biofilm accumulation relative to the medium only control” value ([3]; tobramycin at ¼-MIC) was 1.33 and the “factor of biofilm accumulation relative to the medium only control” value ([3]; tobramycin at ½-MIC) was over 2.00. It also gave an MIC [4] of 0.4 µg/mL (≈ 0.856 µM).
